Earlier results as cited in patent US8592434B2, “Mucoadhesive buccal tablets for the treatment of orofacial herpes” (BioAlliance Pharma SA, priority 2009, dated 2013).

Details: oral treatment, irrespective of the dosage and duration

Row | SMILES | Headaches, treated patients
1 | CC(=O)OCC(CCn1cnc2cnc(N)nc21)COC(C)=O [famciclovir, diacetyl ester of 6-deoxy pencyclovir] | about 10%
2 | CC(C)[C@H](N)C(=O)OCCOCn1cnc2c(=O)[nH]c(N)nc21 [valacyclovir, L-valine ester of acyclovir] | about 10%
